Experiment: xn = mol fraction of the nth substance listed
Settings: Vibrating tube method

N#N [nitrogen] + O=C=O
mass density [kg/m3]
Settings	x2 = 0.8785	x2 = 0.9873
273.15 K, 1001 kPa, Gas	22.5	21.9
273.15 K, 2000 kPa, Gas	43.7	–
273.15 K, 2001 kPa, Gas	–	46
273.15 K, 3001 kPa, Gas	69.6	76.9
273.15 K, 3480 kPa, Gas	–	98
273.15 K, 3902 kPa, Liquid	–	911.4
273.15 K, 4000 kPa, Liquid	–	911.6
273.15 K, 4001 kPa, Gas	104	–
273.15 K, 4100 kPa, Gas	108.6	–
273.15 K, 5001 kPa, Liquid	–	922.2
273.15 K, 6000 kPa, Liquid	–	930.9
273.15 K, 7000 kPa, Liquid	–	938.7
273.15 K, 8001 kPa, Liquid	–	946
273.15 K, 8401 kPa, Liquid	805	–
273.15 K, 9000 kPa, Liquid	–	952.8
273.15 K, 9001 kPa, Liquid	811.5	–
273.15 K, 10000 kPa, Liquid	–	959.2
273.15 K, 10001 kPa, Liquid	824	–
273.15 K, 11001 kPa, Liquid	–	965.2
273.15 K, 11003 kPa, Liquid	836	–
273.15 K, 12000 kPa, Liquid	847	970.8
273.15 K, 13001 kPa, Liquid	856.6	–
273.15 K, 13002 kPa, Liquid	–	976.3
273.15 K, 14000 kPa, Liquid	865.1	–
273.15 K, 14001 kPa, Liquid	–	981.5
273.15 K, 15001 kPa, Liquid	–	986.6
273.15 K, 15002 kPa, Liquid	873.4	–
273.15 K, 16000 kPa, Liquid	–	991.4
273.15 K, 16001 kPa, Liquid	880.8	–
273.15 K, 17000 kPa, Liquid	887.8	–
273.15 K, 17002 kPa, Liquid	–	996.1
273.15 K, 18000 kPa, Liquid	894.6	–
273.15 K, 18012 kPa, Liquid	–	1000.6
273.15 K, 19001 kPa, Liquid	900.7	–
273.15 K, 19011 kPa, Liquid	–	1004.8
273.15 K, 20000 kPa, Liquid	906.6	–
273.15 K, 20001 kPa, Liquid	–	1008.7
283.15 K, 1000 kPa, Gas	–	20.1
283.15 K, 1004 kPa, Gas	19.4	–
283.15 K, 2000 kPa, Gas	–	42.5
283.15 K, 2001 kPa, Gas	40.3	–
283.15 K, 3000 kPa, Gas	64.6	69.8
283.15 K, 4000 kPa, Gas	–	106.2
283.15 K, 4001 kPa, Gas	93.7	–
283.15 K, 4500 kPa, Gas	–	131.6
283.15 K, 5001 kPa, Gas	131.6	–
283.15 K, 5101 kPa, Liquid	–	841.4
283.15 K, 5600 kPa, Gas	170.5	–
283.15 K, 6001 kPa, Liquid	–	857.5
283.15 K, 7000 kPa, Liquid	–	870.7
283.15 K, 8000 kPa, Liquid	–	882.2
283.15 K, 9001 kPa, Liquid	708.8	892.5
283.15 K, 10001 kPa, Liquid	–	901.7
283.15 K, 10002 kPa, Liquid	736.1	–
283.15 K, 11001 kPa, Liquid	757.6	910.2
283.15 K, 12000 kPa, Liquid	775.3	–
283.15 K, 12001 kPa, Liquid	–	918
283.15 K, 13000 kPa, Liquid	–	925.4
283.15 K, 13002 kPa, Liquid	790.5	–
283.15 K, 14000 kPa, Liquid	–	932.2
283.15 K, 14001 kPa, Liquid	803.8	–
283.15 K, 15001 kPa, Liquid	–	938.7
283.15 K, 15002 kPa, Liquid	815.4	–
283.15 K, 16001 kPa, Liquid	825.4	944.9
283.15 K, 17000 kPa, Liquid	835	–
283.15 K, 17001 kPa, Liquid	–	950.9
283.15 K, 18000 kPa, Liquid	843.9	–
283.15 K, 18003 kPa, Liquid	–	956.5
283.15 K, 19001 kPa, Liquid	852.1	–
283.15 K, 19002 kPa, Liquid	–	961.9
283.15 K, 20001 kPa, Liquid	859.6	967
293.15 K, 1000 kPa, Gas	–	18.4
293.15 K, 1001 kPa, Gas	18.8	–
293.15 K, 2000 kPa, Gas	38.4	39.5
293.15 K, 3000 kPa, Gas	60.8	–
293.15 K, 3001 kPa, Gas	–	64.3
293.15 K, 4001 kPa, Gas	86.7	94.5
293.15 K, 5000 kPa, Gas	117.2	135.5
293.15 K, 5700 kPa, Gas	–	180.8
293.15 K, 6000 kPa, Gas	156.7	–
293.15 K, 6300 kPa, Liquid	–	750.2
293.15 K, 7000 kPa, Liquid	–	775
293.15 K, 7002 kPa, Gas	213.8	–
293.15 K, 7601 kPa, Gas	271.4	–
293.15 K, 8001 kPa, Liquid	–	799.6
293.15 K, 9000 kPa, Liquid	–	818.4
293.15 K, 9401 kPa, Liquid	526.3	–
293.15 K, 10000 kPa, Liquid	–	833.7
293.15 K, 10001 kPa, Liquid	579.5	–
293.15 K, 11001 kPa, Liquid	633.1	–
293.15 K, 11002 kPa, Liquid	–	846.8
293.15 K, 12001 kPa, Liquid	–	858.3
293.15 K, 12002 kPa, Liquid	669.7	–
293.15 K, 13000 kPa, Liquid	696.3	868.3
293.15 K, 14000 kPa, Liquid	–	877.6
293.15 K, 14001 kPa, Liquid	718.1	–
293.15 K, 15001 kPa, Liquid	736.4	886.2
293.15 K, 16001 kPa, Liquid	752.3	–
293.15 K, 16002 kPa, Liquid	–	894.2
293.15 K, 17000 kPa, Liquid	766.2	–
293.15 K, 17001 kPa, Liquid	–	901.7
293.15 K, 18000 kPa, Liquid	778.4	–
293.15 K, 18001 kPa, Liquid	–	908.6
293.15 K, 19001 kPa, Liquid	789.6	915.2
293.15 K, 20000 kPa, Liquid	799.8	–
293.15 K, 20001 kPa, Liquid	–	921.4

O=O [oxygen] + O=C=O
mass density [kg/m3]
Settings	x2 = 0.8512	x2 = 0.9558
273.15 K, 1001 kPa, Gas	20	21
273.15 K, 2001 kPa, Gas	41.9	44.5
273.15 K, 3000 kPa, Gas	68	–
273.15 K, 3001 kPa, Gas	–	74.2
273.15 K, 3600 kPa, Gas	–	97.6
273.15 K, 4001 kPa, Gas	101	–
273.15 K, 4400 kPa, Gas	121.1	–
273.15 K, 5101 kPa, Liquid	–	895
273.15 K, 6000 kPa, Liquid	–	902.5
273.15 K, 7001 kPa, Liquid	–	911.9
273.15 K, 8001 kPa, Liquid	–	920.4
273.15 K, 9001 kPa, Liquid	–	928.6
273.15 K, 9013 kPa, Liquid	798.3	–
273.15 K, 10001 kPa, Liquid	–	936
273.15 K, 10003 kPa, Liquid	811.5	–
273.15 K, 11001 kPa, Liquid	825.1	943.1
273.15 K, 12001 kPa, Liquid	837.4	949.6
273.15 K, 13001 kPa, Liquid	848.5	955.8
273.15 K, 14000 kPa, Liquid	858.7	961.5
273.15 K, 15002 kPa, Liquid	868.2	967.1
273.15 K, 16000 kPa, Liquid	877	–
273.15 K, 16001 kPa, Liquid	–	972.4
273.15 K, 17000 kPa, Liquid	–	977.6
273.15 K, 17003 kPa, Liquid	885.4	–
273.15 K, 18000 kPa, Liquid	892.9	–
273.15 K, 18001 kPa, Liquid	–	982.4
273.15 K, 19001 kPa, Liquid	–	987.2
273.15 K, 19039 kPa, Liquid	898.3	–
273.15 K, 20001 kPa, Liquid	–	991.7
283.15 K, 1000 kPa, Gas	–	21
283.15 K, 1002 kPa, Gas	19.2	–
283.15 K, 2000 kPa, Gas	–	43.2
283.15 K, 2001 kPa, Gas	39.7	–
283.15 K, 3000 kPa, Gas	63.3	–
283.15 K, 3001 kPa, Gas	–	69.8
283.15 K, 4000 kPa, Gas	–	103.9
283.15 K, 4001 kPa, Gas	91.1	–
283.15 K, 4700 kPa, Gas	–	139.4
283.15 K, 5000 kPa, Gas	125.7	–
283.15 K, 6001 kPa, Gas	175.6	–
283.15 K, 6200 kPa, Liquid	–	819
283.15 K, 7000 kPa, Liquid	–	835.3
283.15 K, 8001 kPa, Liquid	–	849.8
283.15 K, 9001 kPa, Liquid	–	862.8
283.15 K, 9610 kPa, Liquid	686.6	–
283.15 K, 10001 kPa, Liquid	699.4	873.8
283.15 K, 11001 kPa, Liquid	728.8	–
283.15 K, 11004 kPa, Liquid	–	884.1
283.15 K, 12000 kPa, Liquid	–	893.2
283.15 K, 12001 kPa, Liquid	751.4	–
283.15 K, 13000 kPa, Liquid	770.5	901.9
283.15 K, 14001 kPa, Liquid	786.6	–
283.15 K, 14002 kPa, Liquid	–	909.9
283.15 K, 15000 kPa, Liquid	800	917.3
283.15 K, 16001 kPa, Liquid	812.4	924.2
283.15 K, 17000 kPa, Liquid	–	930.8
283.15 K, 17001 kPa, Liquid	823.5	–
283.15 K, 18001 kPa, Liquid	–	937
283.15 K, 19001 kPa, Liquid	–	943
283.15 K, 20003 kPa, Liquid	–	948.7
293.15 K, 1000 kPa, Gas	–	22.8
293.15 K, 1001 kPa, Gas	18.7	–
293.15 K, 2000 kPa, Gas	38.1	–
293.15 K, 2002 kPa, Gas	–	42.6
293.15 K, 3001 kPa, Gas	59.8	66.2
293.15 K, 4001 kPa, Gas	84.6	95.2
293.15 K, 5000 kPa, Gas	–	132.4
293.15 K, 5003 kPa, Gas	113.5	–
293.15 K, 6001 kPa, Gas	–	190.2
293.15 K, 6002 kPa, Gas	148.8	–
293.15 K, 7000 kPa, Gas	194.6	–
293.15 K, 7402 kPa, Liquid	–	718
293.15 K, 8001 kPa, Gas	260.9	–
293.15 K, 8002 kPa, Liquid	–	747
293.15 K, 8600 kPa, Gas	316	–
293.15 K, 9001 kPa, Liquid	–	775.6
293.15 K, 9801 kPa, Fluid (supercritical or subcritical phases)	460.3	–
293.15 K, 10001 kPa, Fluid (supercritical or subcritical phases)	481.5	–
293.15 K, 10001 kPa, Liquid	–	797.4
293.15 K, 11001 kPa, Liquid	564.7	–
293.15 K, 11002 kPa, Liquid	–	813.9
293.15 K, 12001 kPa, Liquid	617.8	–
293.15 K, 12002 kPa, Liquid	–	828.6
293.15 K, 13000 kPa, Liquid	–	841.3
293.15 K, 13002 kPa, Liquid	657.7	–
293.15 K, 14000 kPa, Liquid	–	852.2
293.15 K, 14001 kPa, Liquid	686.2	–
293.15 K, 15001 kPa, Liquid	710.2	862.4
293.15 K, 16001 kPa, Liquid	730.8	871.6
293.15 K, 17000 kPa, Liquid	–	880.2
293.15 K, 17002 kPa, Liquid	747.7	–
293.15 K, 18000 kPa, Liquid	–	888.3
293.15 K, 19001 kPa, Liquid	–	895.9
293.15 K, 20000 kPa, Liquid	–	902.8

Source: the NIST ThermoML archive (doi:10.1021/je300590v)
